Results taken from patent US20240018125A1, “CYCLIC ISOTHIOUREA DERIVATIVES AS CXCR4 MODULATORS” (ERMIUM THERAPEUTICS, priority 2020, published 2024).
Where a name gives a salt, the structure may show the parent alone.

What follows are compounds tested on peripheral blood mononuclear cells (PBMCs) from healthy donors (assay: IFN production by R848-activated PBMCs, quantified with twINNE luciferase reporter cell line). Conditions: Homo sapiens, PBMC; read-out: IC50 of anti-inflammatory activity (IFN production by activated PBMCs).
Format: cell-based, human
Summary of the method: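 Healthy-donor PBMCs (4.10^6/mL, RPMI/10% FBS) were pre-treated with compound, then stimulated with R848 at 5 μg/mL for 24 h. Supernatants were put on twINNE cells, which carry luciferase under five ISREs, for 24 h, and Bright-Glo luminescence was read. IC50 values came from variable-slope dose-response fits.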
With `O=C1CCCN1CCSC1=NCc2ccccc2N1` [Example 135, 1-(2-((1,4-dihydroquinazolin-2-yl)thio)ethyl)pyrrolidin-2-one hydrochloride] the IC50 was > 32 µM. For `CCN1CCC(SC2=NCc3ccccc3N2)C1` (stereo not drawn) [Example 104, 2-((1-ethylpyrrolidin-3-yl)thio)-1,4-dihydroquinazoline dihydrochloride], the IC50 was ≤ 10 µM. In the case of `COc1ccc(CC2(C)CN=C(SCCN3CCCC3)N2)cc1` (stereo not drawn) [Example 183, 5-(4-methoxybenzyl)-5-methyl-2-((2-(pyrrolidin-1-yl)ethyl)thio)-4,5-dihydro-1H-imidazole dihydrochloride], the IC50 is reported as > 32 µM. `CCCCC1CN=C(SCC2=CSC3=Nc4ccc(Cl)cc4CN23)N1` (stereo not drawn) [Example 41, 3-(((5-butyl-4,5-dihydro-1H-imidazol-2-yl)thio)methyl)-7-chloro-5H-thiazolo[2,3-b]quinazoline dihydrochloride] was tested, and the IC50 was ≤ 10 µM. In the case of `FC1(F)CCN(CCSC2=NCc3ccccc3N2)C1` [Example 125, 2-((2-(3,3-difluoropyrrolidin-1-yl)ethyl)thio)-1,4-dihydroquinazoline dihydrochloride], the IC50 is reported as 10 to 32 µM. With `c1ccc2c(c1)CN(CCSC1=NCc3ccccc3N1)C2` [Example 71, 2-((2-(isoindolin-2-yl)ethyl)thio)-3,4-dihydroquinazoline dihydrochloride] the IC50 was 10 to 32 µM. In the case of `CCCCN1C(SCC2=CSC3=NC(Cc4ccccc4)CN23)=NCc2ccccc21` (stereo not drawn) [Example 99, 6-benzyl-3-(((1-butyl-1,4-dihydroquinazolin-2-yl)thio)methyl)-5,6-dihydroimidazo[2,1-b]thiazole dihydrochloride], the IC50 is reported as ≤ 10 µM. `C1=C(CSC2=NCC(C3CCCCC3)N2)N2Cc3ccccc3CN=C2S1` (stereo not drawn) [Example 26, 3-(((4-cyclohexyl-4,5-dihydro-1H-imidazol-2-yl)thio)methyl)-5,10-dihydrobenzo[e]thiazolo[3,2-a][1,3]diazepine dihydrochloride] was tested, and the IC50 was ≤ 10 µM. `CC1(C)N=C(SCC2=CSC3=NC(Cc4ccccc4)CN23)Nc2ccccc21` (stereo not drawn) [Example 87, 6-benzyl-3-(((4,4-dimethyl-1,4-dihydroquinazolin-2-yl)thio)methyl)-5,6-dihydroimidazo[2,1-b]thiazole dihydrochloride] was tested, and the IC50 was ≤ 10 µM. `CC(C)(C)OC(=O)N1CC[C@H](SC2=NCCc3ccccc3N2)C1` [Example 198, tert-butyl (S)-3-((4,5-dihydro-1H-benzo[d][1,3]diazepin-2-yl)thio)pyrrolidine-1-carboxylate] was tested, and the IC50 was 10 to 32 µM. `C1=C(CSC2=NCc3ccccc3N2)N2Cc3ccccc3N=C2S1` [Example 12, 3-(((1,4-dihydroquinazolin-2-yl)thio)methyl)-5H-thiazolo[2,3-b]quinazoline dihydrochloride] was tested, and the IC50 was ≤ 10 µM. In the case of `C1=C(CSC2=NCc3ccccc3N2)N2CC(Cc3cccs3)N=C2S1` (stereo not drawn) [Example 63, 3-(((3,4-dihydroquinazolin-2-yl)thio)methyl)-6-(thiophen-2-ylmethyl)-5,6-dihydroimidazo[2,1-b]thiazole dihydrochloride], the IC50 is reported as ≤ 10 µM. Work on `c1ccc2c(c1)CN=C(SCCN1C[C@@H]3C[C@H]1CO3)N2` (stereo in doubt) [Example 139, (1S,4S)-5-(2-((1,4-dihydroquinazolin-2-yl)thio)ethyl)-2-oxa-5-azabicyclo[2.2.1]heptane dihydrochloride] yielded an IC50 of 10 to 32 µM. `CN1CCCC1CCSC1=NCC(Cc2ccccc2)N1` (stereo not drawn) [Example 57, 5-benzyl-2-((2-(1-methylpyrrolidin-2-yl)ethyl)thio)-4,5-dihydro-1H-imidazole dihydrochloride] was tested, and the IC50 was > 32 µM. In the case of `C1=C(CSC2=N[C@@H](c3ccccc3)[C@H](c3ccccc3)N2)N2Cc3ccccc3CN=C2S1` [Example 24, 3-((((4S,5S)-4,5-diphenyl-4,5-dihydro-1H-imidazol-2-yl)thio)methyl)-5,10-dihydrobenzo[e]thiazolo[3,2-a][1,3]diazepine dihydrochloride], the IC50 is reported as ≤ 10 µM. For `CCCCC1CN=C(SCC2=CSC3=Nc4ccccc4CN23)N1` (stereo not drawn) [Example 29, 3-(((5-butyl-4,5-dihydro-1H-imidazol-2-yl)thio)methyl)-5H-thiazolo[2,3-b]quinazoline dihydrochloride], the IC50 was ≤ 10 µM. With `Clc1cccc(C[C@H]2CN3C(CSC4=NCc5ccccc5N4)=CSC3=N2)c1` [Example 111, (S)-6-(3-chlorobenzyl)-3-(((1,4-dihydroquinazolin-2-yl)thio)methyl)-5,6-dihydroimidazo[2,1-b]thiazole dihydrochloride] the IC50 was ≤ 10 µM. In the case of `CC1(C)CN=C(SCC2=CSC3=NCc4ccccc4CN23)N1` [Example 8, 3-(((5,5-dimethyl-4,5-dihydro-1H-imidazol-2-yl)thio)methyl)-5,10-dihydrobenzo[e]thiazolo[3,2-a][1,3]diazepine dihydrochloride], the IC50 is reported as ≤ 10 µM. For `C1=C(CSC2=N[C@@H]3CCCC[C@H]3N2)N2Cc3ccccc3N=C2S1` [Example 32, 3-((((3aR,7aR)-3a,4,5,6,7,7a-hexahydro-1H-benzo[d]imidazol-2-yl)thio)methyl)-5H-thiazolo[2,3-b]quinazoline dihydrochloride], the IC50 was ≤ 10 µM. `CC(CCCSC1=NCc2cc(Cl)ccc2N1)N1CCCC1` (stereo not drawn) [Example 162, 6-chloro-2-((4-(pyrrolidin-1-yl)pentyl)thio)-1,4-dihydroquinazoline dihydrochloride] was tested, and the IC50 was ≤ 10 µM. With `Clc1ccc2c(c1)CN1C(CSC3=NCCN3)=CSC1=N2` [Example 4, 7-chloro-3-(((4,5-dihydro-1H-imidazol-2-yl)thio)methyl)-5H-thiazolo[2,3-b]quinazoline dihydrochloride] the IC50 was ≤ 10 µM. `CC1(C)c2ccccc2N=C2SC=C(CSC3=NCc4ccccc4N3)N21` [Example 95, 3-(((1,4-dihydroquinazolin-2-yl)thio)methyl)-5,5-dimethyl-5H-thiazolo[2,3-b]quinazoline dihydrochloride] was tested, and the IC50 was ≤ 10 µM. `Clc1ccc2c(c1)CN1C(CSC3=N[C@@H]4CCCC[C@H]4N3)=CSC1=N2` [Example 40, 7-chloro-3-((((3aR,7aR)-3a,4,5,6,7,7a-hexahydro-1H-benzo[d]imidazol-2-yl)thio)methyl)-5H-thiazolo[2,3-b]quinazoline dihydrochloride] was tested, and the IC50 was ≤ 10 µM. `c1ccc2c(c1)CN=C(SCCN1CCCCC1)N2` [Example 91, 2-((2-(piperidin-1-yl)ethyl)thio)-1,4-dihydroquinazoline dihydrochloride] was tested, and the IC50 was ≤ 10 µM. Compound `c1ccc(N2CCC(SC3=NCc4ccccc4N3)C2)cc1` (stereo not drawn) [Example 101, 2-((1-phenylpyrrolidin-3-yl)thio)-1,4-dihydroquinazoline hydrochloride] has an IC50 of 10 to 32 µM. `Clc1ccc2c(c1)CN1C(CSC3=NCC(Cc4ccccc4)N3)=CSC1=N2` (stereo not drawn) [Example 20, 3-(((5-benzyl-4,5-dihydro-1H-imidazol-2-yl)thio)methyl)-7-chloro-5H-thiazolo[2,3-b]quinazoline dihydrochloride] was tested, and the IC50 was ≤ 10 µM. With `CC1(C)CN2C(CSC3=NCc4ccccc4CN3)=CSC2=N1` [Example 7, 3-(((2,5-dihydro-1H-benzo[e][1,3]diazepin-3-yl)thio)methyl)-6,6-dimethyl-5,6-dihydroimidazo[2,1-b]thiazole dihydrochloride] the IC50 was > 32 µM. In the case of `Clc1ccc2c(c1)N=C1SC=C(CSC3=NCc4ccccc4N3)N1C2` [Example 42, 8-chloro-3-(((1,4-dihydroquinazolin-2-yl)thio)methyl)-5H-thiazolo[2,3-b]quinazoline dihydrochloride], the IC50 is reported as ≤ 10 µM. Compound `CN1CCC(SC2=NCCc3ccccc3N2)C1` (stereo not drawn) [Example 105, 2-((1-methylpyrrolidin-3-yl)thio)-4,5-dihydro-1H-benzo[d][1,3]diazepine dihydrochloride] has an IC50 of 10 to 32 µM. For `Clc1ccc2c(c1)CN=C(SCC1=CSC3=NC(Cc4ccccc4)CN13)N2` (stereo not drawn) [Example 114, 6-benzyl-3-(((6-chloro-1,4-dihydroquinazolin-2-yl)thio)methyl)-5,6-dihydroimidazo[2,1-b]thiazole dihydrochloride], the IC50 was ≤ 10 µM. `c1ccc2c(c1)CCN=C(SCc1ccncc1)N2` [Example 188, 2-((pyridin-4-ylmethyl)thio)-4,5-dihydro-1H-benzo[d][1,3]diazepine dihydrochloride] gave an IC50 of 10 to 32 µM. For `C1CN=C(SCCCCN2CCCC2)NC1` [Example 173, 2-((4-(pyrrolidin-1-yl)butyl)thio)-1,4,5,6-tetrahydropyrimidine dihydrochloride], the IC50 was > 32 µM. `CC1(C)CN2C(CSC3=NCc4ccc(Cl)cc4N3)=CSC2=N1` [Example 6, 3-(((7-chloro-1,4-dihydroquinazolin-2-yl)thio)methyl)-6,6-dimethyl-5,6-dihydroimidazo[2,1-b]thiazole dihydrochloride] was tested, and the IC50 was ≤ 10 µM. For `Fc1cccc(CC2CN3C(CSC4=NCc5ccccc5N4)=CSC3=N2)c1` (stereo not drawn) [Example 121, 3-(((1,4-dihydroquinazolin-2-yl)thio)methyl)-6-(3-fluorobenzyl)-5,6-dihydroimidazo[2,1-b]thiazole dihydrochloride], the IC50 was ≤ 10 µM. With `O=C(O)C1CCN(CCSC2=NCc3ccccc3N2)C1` (stereo not drawn) [Example 144, 1-(2-((1,4-dihydroquinazolin-2-yl)thio)ethyl)pyrrolidine-3-carboxylic acid dihydrochloride] the IC50 was > 32 µM. For `Brc1ccc2c(c1)CN=C(SCCCCN1CCCC1)N2` [Example 163, 6-bromo-2-((4-(pyrrolidin-1-yl)butyl)thio)-1,4-dihydroquinazoline dihydrochloride], the IC50 was ≤ 10 µM. `c1ccc2c(c1)CN=C(SCCCCN1CCCC1)N2` [Example 137, 2-((4-(pyrrolidin-1-yl)butyl)thio)-1,4-dihydroquinazoline dihydrochloride] showed an IC50 of 10 to 32 µM. With `c1ccc2c(c1)CN=C(SCCN1CCC3(CCCC3)C1)N2` [Example 142, 2-((2-(2-azaspiro[4.4]nonan-2-yl)ethyl)thio)-1,4-dihydroquinazoline dihydrochloride] the IC50 was ≤ 10 µM. With `CC1CCCN1CCSC1=NCc2ccccc2N1` (stereo not drawn) [Example 130, 2-((2-(2-methylpyrrolidin-1-yl)ethyl)thio)-1,4-dihydroquinazoline dihydrochloride] the IC50 was ≤ 10 µM.
